According to ChEMBL document CHEMBL1201862, “PubChem BioAssay data set” (2004):
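Assay format: 96-well plates, 48-hour exposure. At the GI50, growth is halved.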 Active and inactive are the calls of the source. Rule as the data show it: active = GI50 up to about 1.1 µM and inactive = higher.

Legend:
Assay in all cases: growth of human tumour cells (NCI), 48 h
A498 = system: A498
A549 = system: A549
ACHN = system: ACHN
CAKI-1 = system: CAKI-1
CCRF-CEM = system: CCRF-CEM
COLO 205 = system: COLO 205
DLD-1 = system: DLD-1
DMS-273 = system: DMS-273
EKVX = system: EKVX
HCC 2998 = system: HCC 2998
HCT-15 = system: HCT-15
HL-60 = system: HL-60
HOP-18 = system: HOP-18
HT-29 = system: HT-29
IGROV-1 = system: IGROV-1
K562 = system: K562
KM-20L2 = system: KM-20L2
KM12 = system: KM12
LOX IMVI = system: LOX IMVI
LXFL 529 = system: LXFL 529
M19-MEL = system: M19-MEL
MOLT-4 = system: MOLT-4
Malme-3M = system: Malme-3M
NCI-H226 = system: NCI-H226
NCI-H23 = system: NCI-H23
NCI-H460 = system: NCI-H460
NCI-H522 = system: NCI-H522
OVCAR-3 = system: OVCAR-3
OVCAR-4 = system: OVCAR-4
OVCAR-5 = system: OVCAR-5
OVCAR-8 = system: OVCAR-8
RPMI-8226 = system: RPMI-8226
RXF 393 = system: RXF 393
SF-268 = system: SF-268
SF-295 = system: SF-295
SK-MEL-28 = system: SK-MEL-28
SK-MEL-2 = system: SK-MEL-2
SK-MEL-5 = system: SK-MEL-5
SK-OV-3 = system: SK-OV-3
SN12C = system: SN12C
SNB-19 = system: SNB-19
SNB-75 = system: SNB-75
SNB-78 = system: SNB-78
SW-620 = system: SW-620
TK-10 = system: TK-10
U-251 = system: U-251
UACC-257 = system: UACC-257
UACC-62 = system: UACC-62
UO-31 = system: UO-31
XF498 = system: XF498
786-0 = system: 786-0
DMS-114 = system: DMS-114
HCT-116 = system: HCT-116
HOP-62 = system: HOP-62
HOP-92 = system: HOP-92
M14 = system: M14
SF-539 = system: SF-539
SR = system: SR

Question: With `O=C1OC(c2ccc(Cl)cc2)(c2ccc(Cl)cc2)c2c1ccc1ccccc21` as the compound, how does the GI50 (A498) read?
Answer: > 100 µM (inactive)

Question: What about the GI50 (A549) of the same compound?
Answer: > 100 µM (inactive)

Question: What about the GI50 (ACHN) of the same compound?
Answer: > 100 µM (inactive)

Question: And the GI50 (CAKI-1)?
Answer: > 100 µM (inactive)

Question: What about the GI50 (CCRF-CEM) of the same compound?
Answer: > 100 µM (inactive)

Question: What about the GI50 (COLO 205) of the same compound?
Answer: > 100 µM (inactive)

Question: What about the GI50 (DLD-1) of the same compound?
Answer: > 100 µM (inactive)

Question: What about the GI50 (DMS-273) of the same compound?
Answer: > 100 µM (inactive)

Question: What about the GI50 (EKVX) of the same compound?
Answer: > 100 µM (inactive)

Question: What about the GI50 (HCC 2998) of the same compound?
Answer: > 100 µM (inactive)

Question: And the GI50 (HCT-15)?
Answer: > 100 µM

Question: And the GI50 (HL-60)?
Answer: 8.69 µM (inactive)

Question: And the GI50 (HOP-18)?
Answer: > 100 µM (inactive)

Question: And the GI50 (HT-29)?
Answer: > 100 µM (inactive)

Question: And the GI50 (IGROV-1)?
Answer: > 100 µM (inactive)

Question: And the GI50 (K562)?
Answer: 54.5 µM (inactive)

Question: What about the GI50 (KM-20L2) of the same compound?
Answer: > 100 µM (inactive)

Question: And the GI50 (KM12)?
Answer: > 100 µM (inactive)

Question: And the GI50 (LOX IMVI)?
Answer: > 100 µM (inactive)

Question: And the GI50 (LXFL 529)?
Answer: > 100 µM (inactive)

Question: And the GI50 (M19-MEL)?
Answer: > 100 µM (inactive)

Question: What about the GI50 (MOLT-4) of the same compound?
Answer: 39.4 µM (inactive)

Question: What about the GI50 (Malme-3M) of the same compound?
Answer: > 100 µM (inactive)

Question: And the GI50 (NCI-H226)?
Answer: 71.4 µM (inactive)

Question: What about the GI50 (NCI-H23) of the same compound?
Answer: 8.67 µM (inactive)

Question: What about the GI50 (NCI-H460) of the same compound?
Answer: > 100 µM (inactive)

Question: What about the GI50 (NCI-H522) of the same compound?
Answer: 44.4 µM (inactive)

Question: And the GI50 (OVCAR-3)?
Answer: > 100 µM (inactive)

Question: And the GI50 (OVCAR-4)?
Answer: > 100 µM (inactive)

Question: What about the GI50 (OVCAR-5) of the same compound?
Answer: > 100 µM (inactive)

Question: What about the GI50 (OVCAR-8) of the same compound?
Answer: > 100 µM (inactive)

Question: What about the GI50 (RPMI-8226) of the same compound?
Answer: 5.94 µM (inactive)

Question: And the GI50 (RXF 393)?
Answer: 20.9 µM (inactive)

Question: And the GI50 (SF-268)?
Answer: > 100 µM (inactive)

Question: And the GI50 (SF-295)?
Answer: > 100 µM (inactive)

Question: And the GI50 (SK-MEL-28)?
Answer: > 100 µM (inactive)

Question: And the GI50 (SK-MEL-2)?
Answer: > 100 µM (inactive)

Question: What about the GI50 (SK-MEL-5) of the same compound?
Answer: 52.5 µM (inactive)

Question: What about the GI50 (SK-OV-3) of the same compound?
Answer: > 100 µM (inactive)

Question: And the GI50 (SN12C)?
Answer: > 100 µM (inactive)

Question: What about the GI50 (SNB-19) of the same compound?
Answer: > 100 µM (inactive)

Question: And the GI50 (SNB-75)?
Answer: 36.7 µM (inactive)

Question: And the GI50 (SNB-78)?
Answer: > 100 µM (inactive)

Question: And the GI50 (SW-620)?
Answer: > 100 µM (inactive)

Question: And the GI50 (TK-10)?
Answer: > 100 µM (inactive)

Question: And the GI50 (U-251)?
Answer: > 100 µM (inactive)

Question: What about the GI50 (UACC-257) of the same compound?
Answer: > 100 µM (inactive)

Question: And the GI50 (UACC-62)?
Answer: > 100 µM (inactive)

Question: And the GI50 (UO-31)?
Answer: 92.3 µM (inactive)

Question: And the GI50 (XF498)?
Answer: > 100 µM (inactive)

Question: `C1COCCSC2=C(SCCO1)SC(=C1SC3=C(SCCOCCOCCS3)S1)S2` was tested. Which GI50 (786-0) did it give?
Answer: 45.8 µM (inactive)

Question: And the GI50 (A498)?
Answer: > 100 µM (inactive)

Question: What about the GI50 (A549) of the same compound?
Answer: > 100 µM (inactive)

Question: And the GI50 (ACHN)?
Answer: > 100 µM (inactive)

Question: What about the GI50 (CAKI-1) of the same compound?
Answer: > 100 µM (inactive)

Question: And the GI50 (CCRF-CEM)?
Answer: > 100 µM (inactive)

Question: And the GI50 (COLO 205)?
Answer: > 100 µM (inactive)

Question: And the GI50 (DLD-1)?
Answer: > 100 µM (inactive)

Question: And the GI50 (DMS-114)?
Answer: 63.5 µM (inactive)

Question: What about the GI50 (DMS-273) of the same compound?
Answer: > 100 µM (inactive)

Question: And the GI50 (EKVX)?
Answer: > 100 µM (inactive)

Question: And the GI50 (HCC 2998)?
Answer: > 100 µM (inactive)

Question: And the GI50 (HCT-116)?
Answer: > 100 µM (inactive)

Question: What about the GI50 (HCT-15) of the same compound?
Answer: > 100 µM

Question: What about the GI50 (HL-60) of the same compound?
Answer: > 100 µM (inactive)

Question: And the GI50 (HOP-18)?
Answer: > 100 µM (inactive)

Question: And the GI50 (HOP-62)?
Answer: 82.2 µM (inactive)

Question: And the GI50 (HOP-92)?
Answer: 44.7 µM (inactive)

Question: What about the GI50 (HT-29) of the same compound?
Answer: > 100 µM (inactive)

Question: What about the GI50 (IGROV-1) of the same compound?
Answer: > 100 µM (inactive)

Question: What about the GI50 (K562) of the same compound?
Answer: > 100 µM (inactive)

Question: What about the GI50 (KM-20L2) of the same compound?
Answer: > 100 µM (inactive)

Question: What about the GI50 (KM12) of the same compound?
Answer: > 100 µM (inactive)

Question: What about the GI50 (LOX IMVI) of the same compound?
Answer: > 100 µM (inactive)

Question: What about the GI50 (LXFL 529) of the same compound?
Answer: > 100 µM (inactive)

Question: What about the GI50 (M14) of the same compound?
Answer: > 100 µM (inactive)

Question: And the GI50 (MOLT-4)?
Answer: > 100 µM (inactive)

Question: And the GI50 (Malme-3M)?
Answer: 98.9 µM (inactive)

Question: What about the GI50 (NCI-H226) of the same compound?
Answer: > 100 µM (inactive)

Question: And the GI50 (NCI-H23)?
Answer: > 100 µM (inactive)

Question: What about the GI50 (NCI-H460) of the same compound?
Answer: 96.4 µM (inactive)

Question: What about the GI50 (NCI-H522) of the same compound?
Answer: 36.2 µM (inactive)

Question: And the GI50 (OVCAR-3)?
Answer: > 100 µM (inactive)

Question: What about the GI50 (OVCAR-4) of the same compound?
Answer: 48.2 µM (inactive)

Question: And the GI50 (OVCAR-5)?
Answer: > 100 µM (inactive)

Question: What about the GI50 (OVCAR-8) of the same compound?
Answer: 53.5 µM (inactive)

Question: And the GI50 (RXF 393)?
Answer: 32.8 µM (inactive)

Question: And the GI50 (SF-268)?
Answer: 51.1 µM (inactive)

Question: What about the GI50 (SF-295) of the same compound?
Answer: 50.9 µM (inactive)

Question: What about the GI50 (SF-539) of the same compound?
Answer: 34.5 µM (inactive)

Question: And the GI50 (SK-MEL-28)?
Answer: > 100 µM (inactive)

Question: What about the GI50 (SK-MEL-2) of the same compound?
Answer: 84.3 µM (inactive)

Question: What about the GI50 (SK-MEL-5) of the same compound?
Answer: > 100 µM (inactive)

Question: What about the GI50 (SK-OV-3) of the same compound?
Answer: 72.1 µM (inactive)

Question: And the GI50 (SN12C)?
Answer: > 100 µM (inactive)

Question: And the GI50 (SNB-19)?
Answer: 73.8 µM (inactive)

Question: What about the GI50 (SNB-75) of the same compound?
Answer: 21.7 µM (inactive)

Question: What about the GI50 (SNB-78) of the same compound?
Answer: 38 µM (inactive)

Question: What about the GI50 (SR) of the same compound?
Answer: 66.4 µM (inactive)

Question: And the GI50 (SW-620)?
Answer: > 100 µM (inactive)

Question: And the GI50 (TK-10)?
Answer: > 100 µM (inactive)

Question: And the GI50 (U-251)?
Answer: 49.2 µM (inactive)

Question: And the GI50 (UACC-257)?
Answer: > 100 µM (inactive)

Question: And the GI50 (UACC-62)?
Answer: > 100 µM (inactive)

Question: And the GI50 (UO-31)?
Answer: > 100 µM (inactive)

Question: What about the GI50 (XF498) of the same compound?
Answer: 28.6 µM (inactive)
